Data as given in paper PMC9239059, “Structure-Guided Synthesis of FK506 and FK520 Analogs with Increased Selectivity Exhibit In Vivo Therapeutic Efficacy against Cryptococcus” (mBio, 2022).
≈ marks a conversion by molar mass, not a printed value.

Test system: T1, Cryptococcus neoformans (H99)
T1 construct: H99
Experiment: microbe, parasite or virus in culture
Design: CLSI M27-A3 broth microdilution in RPMI 1640 at 37 C, growth inhibition of C. neoformans (MIC)
Conditions: Cryptococcus neoformans, read-out: MIC (μg/mL) against: / Cryptococcus neoformans (H99)^a
Procedure: In vitro antifungal activities of FK506, FK520, and analogs were assessed in RPMI 1640 (Sigma-Aldrich) for all strains tested. MICs/minimum effective concentrations (MECs) for each drug were measured using modified Clinical and Laboratory Standards Institute (CLSI) M38-A2 and M27-A3 standard in vitro antifungal susceptibility protocols. Broth microdilution assays for MIC/MEC assessment were performed as described previously ([33]). All antifungal assays with C. neoformans were performed at 37°C. Antifungal susceptibility testing for C. albicans was performed in the presence of a uniform 1 μg/mL concentration of fluconazole to sensitize the organism to calcineurin inhibition. MICs/minimum effective concentrations (MECs) were determined for each of the novel analogs against the three major human fungal pathogens, A. fumigatus, C. neoformans, and C. albicans. […] Thus, analogs of FK506 and FK520 can tolerate up to 100-fold reduction in antifungal activity and still be considered for in vivo testing. For C. neoformans, MICs were the most uniform and ranged from 0.2 to 2 μg/mL, which is between 4- and 40-fold reduced for antifungal activity. C. albicans MICs ranged from 0.2 to 6.25 μg/mL, which is between 10- and 312.5-fold reduced for activity. Despite being one of the most difficult to treat fungal infections, all six analogs were active against A. fumigatus with MECs ranging from 1 to 2 μg/mL or a 62.5- to 125-fold reduction in activity.

**Q.** C=CC[C@@H]1/C=C(\C)C[C@H](C)C[C@H](OC)[C@H]2O[C@@](O)(C(=O)C(=O)N3CCCC[C@H]3C(=O)O[C@H](/C(C)=C/[C@@H]3CC[C@@H](O)[C@H](OC)C3)[C@H](C)[C@@H](O)C/C1=N/NC(C)=O)[C@H](C)C[C@@H]2OC [JH-FK-01, APX879] was tested. Which MIC did it give?
**A.** 1 µg/mL (≈ 1.16 µM)
